Laboratory results published in patent US12570615B2, “Quinazolinone derivatives” (Hoffmann-La Roche Inc., priority 2021, dated 2026).

Assays:
[1] = system: P-ERK (ERK phospho-T202/Y204) in A375 cells expressing V600E mutated BRAF; test: HTRF assay for P-ERK determination in A375 cells (BRAF inhibition); type: cell-based; settings: Homo sapiens, A-375, P-ERK level, drug incubation 1 hour, DMSO = 100%, 10 μM Dabrafenib = 0%
Description: (§1) A375 is a cellular cancer model expressing V600E mutated BRAF and HCT116 a cellular cancer model expressing WT BRAF. First generation BRAF inhibitors such as e.g. dabrafenib induce a paradox effect on tumour cells in that they inhibit the growth of V600E mutated BRAF cells (such as e.g. A375), while they activate growth in WT BRAF cells (such as e.g. HCT 116). ERK 1,2 phosphorylation (terminal member of the phosphorylation cascade of the MAPK pathway) is hereafter reported as main readout for the activation status of the MAPK pathway. DMEM no-phenol red medium supplemented with L-glutamine was purchased from (Thermo Fisher Scientific). Fetal bovine serum (FBS) was purchased from VWR. Advanced ERK phospho-T202/Y204 kit—10,000 tests was purchased from Cisbio cat #64AERPEH. A375 (catalog #CRL-1619) and HCT116 (catalog #CCL-247) cells were originally obtained from American type Culture Collection (ATCC) and banked by the Roche repository. 384-Well microplates utilized were purchased from Greiner Bio-One, 384-well, (With Lid, HiBase, Low volume cat 784-080).
(§2) Prior to the assay, A375 and HCT116 cell lines are maintained in DMEM no-phenol red medium supplemented with 10% fetal bovine serum (FBS). Following compound treatment, P-ERK levels are determined by measuring FRET fluorescence signal induced by selective binding of 2 antibodies provided in the mentioned kit (Cisbio cat #64AERPEH) on ERK protein when phosphorylated at Thr202/Tyr204. Briefly, 8000 cells/well in 12 μl media/well are plated in the 384-well plate and left overnight in the incubator (at 37° C. with 5% CO2-humidified atmosphere), the following day the plate is treated in duplicate with test compounds, dabrafenib and PLX8394 (the latter two as controls) at the following final drug concentrations: 10 μM-3 μM 1 μM-0.3 μM-0.1 μM-0.03 μM-0, 01 μM-0.003 μM-0.001 μM, all wells are subjected to DMSO normalization and drug incubation occurs for 1 hour. Then, […] of a 4× lysis buffer supplied with the kit are added to the wells, the plate is then centrifuged for 30 second (3000 rpm) and incubated on a plate shaker for 1 h at rt.
(§3) At the end of the incubation 4 μL/well of advanced P-ERK antibody solution (prepared according to manufacturer's instruction) followed by 4 μL/well of criptate P-ERK antibody solution (prepared according to manufacturer's instruction) (Cisbio cat #64AERPEH) are added to test wells.
(§4) In order to allow proper data normalization control wells non drug treated reported in the following table are always included in each plate (according to manufacturer's instruction):
(§5) The plate is then centrifuged at 3000 rpm for 30 second, sealed to prevent evaporation and incubated overnight in the dark at room temperature.
(§6) The plate is then analyzed and fluorescence emission value collected through a Pherastast FSX (BMG Labtech) apparatus at […].
(§7) The obtained fluorescence values are processed according to the formula Ratio=[…]*10000 then the average of the ratio on the blank is subtracted to all values.
Data are normalized in the case of A375 cells (BRAF inhibition) considering the average of the ratio (blank subtracted) derived by DMSO only treated cells as 100% and by considering the average of the ratio (blank subtracted) derived by 10 μM Dabrafenib treated cells as 0%. Mean of the normalized points are fitted with sigmoidal curve and IC50 determined.

[2] = system: P-ERK (ERK phospho-T202/Y204) in HCT116 cells expressing WT BRAF; test: HTRF assay for P-ERK determination in HCT116 cells (BRAF activation); type: cell-based; settings: Homo sapiens, HCT-116, drug incubation 1 hour, concentration giving 50% of the maximum activation achieved by Dabrafenib
Description: as §1, §2, §3, §4, §5, §6, §7
Data are normalized in the case of HCT116 cells (BRAF activation) considering the average of the ratio (blank subtracted) derived by DMSO only treated cells as 0% and by considering the average of the ratio (blank subtracted) derived by Dabrafenib treated cells at the concentration which provides the highest signal as 100%. Individual points are fitted with either sigmoidal or bell shape curves. The EC50 is the concentration at which activation equal to 50% of the maximum activation achieved by Dabrafenib is obtained.

BRAF (V600E) = BRAF (V600E) (Homo sapiens, UniProt P15056, V600E); test: KD BRAF (V600E) (Table 1); type: binding
BRAF (wt) = BRAF (wt) (Homo sapiens, UniProt P15056); test: KD BRAF (wt) (Table 1); type: binding
Chain of BRAF (wt) (P15056 whole entry): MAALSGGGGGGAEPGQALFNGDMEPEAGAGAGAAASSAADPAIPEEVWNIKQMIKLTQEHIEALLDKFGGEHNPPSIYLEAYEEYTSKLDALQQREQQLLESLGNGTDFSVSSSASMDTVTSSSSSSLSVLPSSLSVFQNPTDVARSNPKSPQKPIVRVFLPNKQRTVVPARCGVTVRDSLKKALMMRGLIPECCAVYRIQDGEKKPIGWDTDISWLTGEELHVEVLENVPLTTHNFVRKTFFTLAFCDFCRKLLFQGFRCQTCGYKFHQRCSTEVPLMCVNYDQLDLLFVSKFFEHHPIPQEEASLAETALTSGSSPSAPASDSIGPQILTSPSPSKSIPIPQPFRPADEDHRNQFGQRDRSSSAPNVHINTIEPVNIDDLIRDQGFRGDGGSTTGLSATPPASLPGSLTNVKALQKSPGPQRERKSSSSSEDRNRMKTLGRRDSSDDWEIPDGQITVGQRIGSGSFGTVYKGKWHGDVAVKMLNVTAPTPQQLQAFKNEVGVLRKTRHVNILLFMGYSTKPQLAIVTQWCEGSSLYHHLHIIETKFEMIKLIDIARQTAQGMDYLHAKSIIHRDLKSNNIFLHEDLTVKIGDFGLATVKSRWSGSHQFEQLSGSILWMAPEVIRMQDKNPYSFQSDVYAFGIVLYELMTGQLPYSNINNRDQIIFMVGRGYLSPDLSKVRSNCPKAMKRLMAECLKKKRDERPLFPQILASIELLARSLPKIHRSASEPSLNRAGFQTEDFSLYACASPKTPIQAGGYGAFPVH

Chain of BRAF (V600E) (P15056 whole entry V600E): as the sequence (P15056 whole entry) above, with V600E counted along it

Row | Compound | IC50 [1] | EC50 [2] | Kd (BRAF (V600E)) | Kd (BRAF (wt))
1 | CCN(C)S(=O)(=O)Nc1cccc(Nc2ccc3ncn(CC(=O)NCCOC)c(=O)c3c2)c1C#N [Example 31, 2-[6-[2-cyano-3-[[ethyl(methyl)sulfamoyl]amino]anilino]-4-oxo-quinazolin-3-yl]-N-(2-methoxyethyl)acetamide] | ≥ 10000 nM | ≥ 10 µM | 403 nM | 137 nM
2 | CC(C)(C)OC(=O)NCCCn1cnc2ccc(Oc3c(F)ccc(NS(=O)(=O)C4CCCC4)c3C#N)cc2c1=O [Example 8, tert-butyl N-[3-[6-[2-cyano-3-(cyclopentylsulfonylamino)-6-fluoro-phenoxy]-4-oxo-quinazolin-3-yl]propyl]carbamate] | 33.9 nM | 2.43 µM | 7.83 nM | 4.86 nM
3 | CCC(C)S(=O)(=O)Nc1ccc(F)c(Oc2ccc3ncn(CCCNC(=O)OC(C)(C)C)c(=O)c3c2)c1C#N (stereo not drawn) [Example 13, tert-butyl N-[3-[6-[2-cyano-6-fluoro-3-(sec-butylsulfonylamino)phenoxy]-4-oxo-quinazolin-3-yl]propyl]carbamate] | 36.3 nM | 2.82 µM | 19.3 nM | 12.1 nM
4 | CCN(C)S(=O)(=O)Nc1ccc(F)c(Oc2ccc3ncn(CCCNC(=O)OC(C)(C)C)c(=O)c3c2)c1C#N [Example 6, tert-butyl N-[3-[6-[2-cyano-3-[[ethyl(methyl)sulfamoyl]amino]-6-fluoro-phenoxy]-4-oxo-quinazolin-3-yl]propyl]carbamate] | 41.6 nM | ≥ 10 µM | 19.4 nM | 6.36 nM
5 | CN(CCCn1cnc2ccc(Oc3c(F)ccc(NS(=O)(=O)C4CCCC4)c3C#N)cc2c1=O)C(=O)OC(C)(C)C [Example 20, tert-butyl N-[3-[6-[2-cyano-3-(cyclopentylsulfonylamino)-6-fluoro-phenoxy]-4-oxo-quinazolin-3-yl]propyl]-N-methyl-carbamate] | 436 nM | ≥ 10 µM | 9.2 nM | 3.34 nM
6 | CC(C)(C)OC(=O)NCCCn1cnc2ccc(Oc3c(F)ccc(NS(=O)(=O)C4CCCCC4)c3C#N)cc2c1=O [Example 12, tert-butyl N-[3-[6-[2-cyano-3-(cyclohexylsulfonylamino)-6-fluoro-phenoxy]-4-oxo-quinazolin-3-yl]propyl]carbamate] | 55.9 nM | 4.93 µM | 59.2 nM | 27.6 nM
7 | CCN(C)S(=O)(=O)Nc1cccc(Nc2ccc3ncn(CC4CCN(C(=O)OC(C)(C)C)CC4)c(=O)c3c2)c1C#N [Example 32, tert-butyl 4-[[6-[2-cyano-3-[[ethyl(methyl)sulfamoyl]amino]anilino]-4-oxo-quinazolin-3-yl]methyl]piperidine-1-carboxylate] | 428 nM | ≥ 10 µM | 813 nM | 210 nM
8 | CCN(C)S(=O)(=O)Nc1ccc(F)c(Oc2ccc3ncn(CCC4CCN(C(=O)OC(C)(C)C)CC4)c(=O)c3c2)c1C#N [Example 3, tert-butyl 4-[2-[6-[2-cyano-3-[[ethyl(methyl)sulfamoyl]amino]-6-fluoro-phenoxy]-4-oxo-quinazolin-3-yl]ethyl]piperidine-1-carboxylate] | 41 nM | 6.4 µM | 162 nM | 78.3 nM
9 | CC(=O)N(C)CCCn1cnc2ccc(Oc3c(F)ccc(NS(=O)(=O)C4CCCC4)c3C#N)cc2c1=O [Example 24, N-[3-[6-[2-cyano-3-(cyclopentylsulfonylamino)-6-fluoro-phenoxy]-4-oxo-quinazolin-3-yl]propyl]-N-methyl-acetamide] | 50.4 nM | ≥ 10 µM | 0.76 nM | 0.42 nM
10 | CC(C)(C)OC(=O)N1CCC(CCn2cnc3ccc(Oc4c(F)ccc(NS(=O)(=O)N5CCCCC5)c4C#N)cc3c2=O)CC1 [Example 18, tert-butyl 4-[2-[6-[2-cyano-6-fluoro-3-(1-piperidylsulfonylamino)phenoxy]-4-oxo-quinazolin-3-yl]ethyl]piperidine-1-carboxylate] | 158 nM | 1.46 µM | 57.5 nM | 45.4 nM
11 | CC(=O)N(C)CCCn1cnc2ccc(Oc3c(F)ccc(NS(=O)(=O)N4CCCC4)c3C#N)cc2c1=O [Example 26, N-[3-[6-[2-cyano-6-fluoro-3-(pyrrolidin-1-ylsulfonylamino)phenoxy]-4-oxo-quinazolin-3-yl]propyl]-N-methyl-acetamide] | 20.5 nM | 4.26 µM | 0.55 nM | 0.32 nM
12 | CN(Cc1ccc(CCCn2cnc3ccc(Oc4c(F)ccc(NS(=O)(=O)C5CCCC5)c4C#N)cc3c2=O)cc1)C(=O)OC(C)(C)C [Example 28, tert-butyl N-[[4-[3-[6-[2-cyano-3-(cyclopentylsulfonylamino)-6-fluoro-phenoxy]-4-oxo-quinazolin-3-yl]propyl]phenyl]methyl]-N-methyl-carbamate] | 144 nM | 0.836 µM | 33.7 nM | 19.6 nM
